In PMC9536471 (Biochemistry, 2022):
“And” between values parts separate entries of the source, which are not always exact repeats. Identical values can stand only once. Like-named read-outs stand apart in the source and are kept apart here.

Key:
[1] = target: T1, T. cruzi HGPRT (Trypanosoma cruzi, UniProt Q4DGA3); test: Screening of T. cruzi HGPRT inhibitors; type: biochemical
T1 sequence (Q4DGA3 1-221): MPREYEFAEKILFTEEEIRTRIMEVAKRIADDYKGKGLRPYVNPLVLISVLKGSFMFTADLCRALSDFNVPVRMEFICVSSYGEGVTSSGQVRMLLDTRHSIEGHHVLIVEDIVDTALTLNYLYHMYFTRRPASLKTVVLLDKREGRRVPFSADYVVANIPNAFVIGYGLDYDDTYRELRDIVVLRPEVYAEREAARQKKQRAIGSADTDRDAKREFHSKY

[2] = tested on: T. cruzi HGPRT; test: Screening of T. cruzi HGPRT inhibitors; type: biochemical, Trypanosoma cruzi; conditions: selectivity index: Ki of HsHGPRT divided by appKi of T. cruzi HGPRT
[3] = target: T2, HsHGPRT (Homo sapiens, UniProt P00492); test: Inhibition analysis of HsHGPRT, IMPDH-coupled assay; type: biochemical
T2 sequence (P00492 1-218): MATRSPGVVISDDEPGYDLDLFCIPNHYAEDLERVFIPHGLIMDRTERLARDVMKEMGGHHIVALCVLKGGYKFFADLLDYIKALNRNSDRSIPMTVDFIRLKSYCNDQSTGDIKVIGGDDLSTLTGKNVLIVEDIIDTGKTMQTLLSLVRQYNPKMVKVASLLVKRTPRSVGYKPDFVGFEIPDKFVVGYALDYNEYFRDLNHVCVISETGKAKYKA

[4] = target: T3, PfHGXPRT (Plasmodium falciparum, UniProt P20035); test: Inhibition analysis of PfHGXPRT, IMPDH-coupled assay; type: biochemical
T3 sequence (P20035 1-231): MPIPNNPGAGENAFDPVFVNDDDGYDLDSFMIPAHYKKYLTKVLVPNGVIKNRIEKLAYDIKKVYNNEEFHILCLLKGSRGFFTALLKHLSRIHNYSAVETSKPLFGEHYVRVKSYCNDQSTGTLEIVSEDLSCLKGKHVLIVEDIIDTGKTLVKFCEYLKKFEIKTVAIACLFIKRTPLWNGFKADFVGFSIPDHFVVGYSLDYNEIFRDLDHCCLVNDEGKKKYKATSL

[5] = target: T4, TcA (Trypanosoma cruzi, UniProt Q4DRC4); conditions: cited from earlier work
T4 sequence (Q4DRC4 1-241): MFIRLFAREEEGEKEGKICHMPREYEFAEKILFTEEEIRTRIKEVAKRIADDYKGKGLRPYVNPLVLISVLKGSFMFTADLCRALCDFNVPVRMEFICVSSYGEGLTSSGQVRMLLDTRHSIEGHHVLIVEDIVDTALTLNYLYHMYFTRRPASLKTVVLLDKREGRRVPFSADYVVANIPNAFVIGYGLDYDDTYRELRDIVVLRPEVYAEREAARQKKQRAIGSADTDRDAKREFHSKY

[6] = target: T5, TcC (Trypanosoma cruzi, UniProt Q4DGA3); test: Isothermal titration calorimetry; type: binding
T5 sequence (Q4DGA3 1-221): T1 sequence (Q4DGA3 1-221)

[7] = target: T5, TcC; test: Product inhibition studies of TcC; type: biochemical
[8] = substrate: Nc1nc2nc[nH]c2c(=O)[nH]1; test: Steady-state kinetics of TcA, biosynthetic; type: biochemical, Trypanosoma cruzi; conditions: other: biosynthetic reaction, pH 8.3
[9] = substrate: O=c1[nH]cnc2nc[nH]c12; test: purified protein, by the assay type; conditions: other: biosynthetic reaction, pH 8.3
[10] = substrate: Nc1nc2nc[nH]c2c(=O)[nH]1; test: Steady-state kinetics of TcC, biosynthetic; type: biochemical, Trypanosoma cruzi; conditions: other: biosynthetic reaction, pH 8.3
[11] = substrate: Oc1ncnc2[nH]ncc12; test: Steady-state kinetics of TcC, biosynthetic; type: biochemical, Trypanosoma cruzi; conditions: other: biosynthetic reaction, pH 8.3
[12] = HPP-MP biosynthesis, fixed PRPP (1 mM), Lineweaver–Burk plots
[13] = GMP biosynthesis, variable PRPP (20–215 μM), fixed Gua (70 μM)
[14] = IMP biosynthesis, variable PRPP (20–215 μM), fixed Hx (60 μM)

CN(Cc1c[nH]c2c(=O)[nH]cnc12)[C@H](CO)CCP(=O)(O)O.N.N [Compound 4] gave a Ki [1] of 1440 ± 30 nM, an SI [2] of 3.2 and a Ki [3] of 4600 ± 70 nM. The Ki [4] was 108 ± 30 nM.

In the case of Oc1ncnc2[nH]ncc12 [HPP, 4-hydroxypyrazolo(3,4-d)pyrimidine, reference compound], the Km [5, 12] is given as 710 ± 130 µM and the kcat [5, 12] is given as 0.34 ± 0.03 ^c^, ^d s^–1.

In the case of O=c1[nH]cnc2nc[nH]c12 [Hx, hypoxanthine], the “binding to free TcC enzyme” value ([6]; ligand concentrations 500- and 900-fold higher than Km) is reported as “could not be detected”.

For O=P(O)(O)OC[C@H]1O[C@H](OP(=O)(O)OP(=O)(O)O)[C@H](O)[C@@H]1O [PRPP, 5-phospho-α-D-ribose 1-diphosphate], the Ki [7] was 800 ± 100 nM, the Kd [6] was 142000 ± 1000 nM and the “ΔG°” value ([6]; apo TcC, 25 °C, pH 8.0) was “–5247 ± 5 cal mol^–1”. For the same molecule, the “ΔH°” value ([6]; apo TcC, 25 °C, pH 8.0) was 5160 ± 450 cal mol^–1, the “–TΔS°” value ([6]; apo TcC, 25 °C, pH 8.0) was “–10,410 ± 450 cal mol^–1” and the Ka ([6]; association constant, apo TcC, 25 °C, pH 8.0) was 7070 ± 60 M^–1. For the same molecule, the N ([6]; number of binding sites per monomer, apo TcC, 25 °C, pH 8.0) was 1.2 ± 0.2, the Km [5, 13] was 32 ± 5 µM and the kcat [5, 13] was 32 ^b s^–1. For the same molecule, the Km [5, 14] was 31 ± 5 µM and the kcat [5, 14] was 23 ^b s^–1.

B1: TcA (Trypanosoma cruzi strain CL Brener) (protein)
chain: T4 sequence (Q4DRC4 1-241)
For B1, the kcat/Km [8] was 1 × 10^5 M^–1 s^–1 and 2.5 × 10^6 M^–1 s^–1 and the kcat/Km ([9]; TcA) was 1 × 10^5 M^–1 s^–1.

B2: TcC (Trypanosoma cruzi strain CL Brener) (protein)
chain: T1 sequence (Q4DGA3 1-221)
For B2, the kcat/Km [10] was 1 × 10^5 M^–1 s^–1 and 2.5 × 10^6 M^–1 s^–1, the kcat/Km [11] was 10^3 M^–1 s^–1 and the kcat/Km ([9]; TcC) was 1 × 10^5 M^–1 s^–1 and 2.1 × 10^6 M^–1 s^–1.
